Reference: patent US11911413B2, “Methods and compositions for the treatment of pain and/or inflammation” (Proteobioactives Pty Limited, priority 2018, dated 2024)

Legend:
[1] = tested on: patients with OA of the hand and knee; assay: Double-blind comparator clinical trial, hand and knee OA combined (Example 7); format: in vivo, human; settings: daily for 6 weeks
Text: (§1) A prospective, dose ranging, double-blind, comparator clinical trial to evaluate the tolerability and efficacy of Pentabrex™, (Proteobioactives Pty Ltd, Balgowlah, NSW, Australia) compared to celecoxib, for the relief of symptoms in elderly patients with OA of the hand and knee conducted at the Subiaco Rheumatology Clinic, Subiaco, Perth, WA, Australia.
(§2) Thirty three male and female patients with symptomatic hand or knee OA were obtained from referrals sent by general medical practitioners located in Perth (Western Australia) suburbs. […] To be included in the clinical trial, patients had to be 50 years of age or older and have an OA grade of 3-4 (Kellgren J H, Lawrence J S. Radiological assessment of osteoarthrosis. Annals Rheumatic Dis.1957; 16:494-502) that had been symptomatic for at least 6 months prior to their inclusion. If a patient had pain in both knees or both hands, the more painful knee or hand was the joint used for assessment. If patients had both hand and knee OA each most painful joint was assessed separately.
(§3) Although patients were requested not to consume additional analgesics or NSAIDs over the duration of the study, if they found this to be too difficult because of the unacceptable level of pain they experienced, they were required to document the drugs and quantities they used for relief of pain in a six week daily diary that supplied with the clinical trial test package manufactured by the compounding chemist (Kingsway, Brookvale NSW 2100, Australia). Failure to complete the daily dairies over the duration of the 6 week trial and return the used blister pack to the examining clinician at the final consultation would be taken as to non-compliance with the trial protocol. The diary requirement was included as part of patient assessment for the duration of the trial because of the known non-compliance of patients taking oral medications over extended periods of time (van Berge Henegouwen MTH, van Driel H F, Kasteleijn-Nolst DGA. A patient diary as a tool to improve medicine compliance. Pharm World Sci. 1999; 21: 21-24, Farmer K C, Methods for measuring and monitoring medication regimen adherence in clinical trials and clinical practice. Clinical […]
The same clinical parameters that were determined for all patients at baseline were assessed at the final examination six weeks later. The patient's diaries and blister packs returned were also examined and the number of supplementary analgesics they consumed was recorded. Any adverse side effects noted over the duration of the trial were also recorded. […]

[2] = 223 cases in the United States, FDA memorandum 2005; cited from earlier work
[3] = tested on: patients with knee OA; assay: Double-blind comparator clinical trial Pentabrex vs celecoxib, knee OA (Example 7); format: in vivo, human
Text: as §1, §2
(§4) Patients with rheumatoid arthritis or any other rheumatic condition that required the continuous administration of a second line rheumatic agent such as methotrexate, steroid or cytokine antagonist, had current bleeding diathesis or were receiving treatment with blood thinners (such as warfarin), or had any significant medical conditions involving the liver, kidney, or their motor or nervous systems were excluded from the trial.
as §3
For patients with OA of the knee joints their VAS pain scores were determined for their pain at rest, pain on walking and early morning stiffness. […]

[4] = tested on: patients with hand OA; assay: Double-blind comparator clinical trial Pentabrex vs celecoxib, hand OA (Example 7); format: in vivo, human
Text: as §1, §2, §4, §3
At the commencement of the trial details of the patient's age, height, weight, location of the most painful joints, duration of symptoms and grade of OA were recorded. […]

[5] = tested on: patients with symptomatic knee OA; settings: NaPPS 3 mg/kg, 4 weekly IM injections, cited from earlier work
[6] = single oral dose [3H]PPS with 300 or 450 mg un-labelled PPS; healthy female subjects; cited from earlier work
[7] = tested on: patients with bone marrow lesions (oedema) diagnosed by MRI; settings: PPS administered systemically (IM or SC); cited from earlier work
[8] = tested on: Japanese patients with mild knee OA; settings: weekly subcutaneous 2 mg/kg NaPPS over 6 weeks; assessed to 52 weeks; cited from earlier work
[9] = tested on: postmenopausal women with mild to moderate osteoarthritis; settings: cited from earlier work
[10] = tested on: elderly subjects with high blood viscosity and filterability; settings: 15 elderly subjects; IM 50 mg NaPPS twice daily for a week; cited from earlier work
[11] = tested on: leukocytes isolated from the blood of these patients; settings: seven days after NaPPS administration, cited from earlier work
[12] = Pentabrex 350 mg or celecoxib 175 mg daily for 6 weeks
[13] = Pentabrex n = 5, celecoxib n = 9, daily for 6 weeks
[14] = Pentabrex n = 5, celecoxib n = 4, daily for 6 weeks

## Cc1ccc(-c2cc(C(F)(F)F)nn2-c2ccc(S(N)(=O)=O)cc2)cc1 [Celecoxib, 4-[5-(4-methylphenyl)-3-(trifluoromethyl)pyrazol-1-yl] benzene sulfonamide]
[1]
  Negative response, % of patients: 38.46%
  Negative response, number of patients: 5
  Positive response, % of patients: 61.54%
  Positive response, number of patients: 8
[2]
  thrombotic or embolic events associated with the drug: 102 cases
[3]; [12]
  Negative response, % of patients: 23.33%
  Positive response, % of patients: 77.77%
[3]; [13]
  Negative response, number of patients: 2
  Positive response, number of patients: 7
[4]; [12]
  Negative response, % of patients: 75%
  Positive response, % of patients: 25%
[4]; [14]
  Negative response, number of patients: 3
  Positive response, number of patients: 1

## CS(=O)(=O)c1ccc(C2=C(c3ccccc3)C(=O)OC2)cc1 [rofecoxib, 4-(4-methylsulfonylphenyl)-3-phenyl-5H-furan-2-one]
[2]
  thrombotic or embolic events associated with the drug: 99 cases

## [2R,3R,4S,5R)-2-hydroxy-5-[(2S,3R,4S,5R)-5-hydroxy-3,4-disulfo-oxyoxan-2-yl]oxy-3-sulfooxyoxan-4-yl] hydrogen sulfate [NaPPS]
[5]
  pain on walking and other physical activities, such as stair climbing: significantly improved
[5]; maintained for 20 weeks after cessation
  joint pain at rest relative to placebo controls: significantly improvement
[6]
  administered dose excreted in the faeces as intact PPS: 84%
  administered dose excreted in urine in a depolymerized form: 6%
[7]
  bone marrow lesions (oedema) and accompanying pain: resolved the bone marrow lesions (oedema) and accompanying pain
[8]
  joint swelling, knee flexion, pain while walking and stair climbing: improved significantly
[9]; 3 mg/kg NaPPS IM, 24 hours after administration
  peripheral blood mononuclear cell procoagulant activity (MPA): significantly reduced to within the normal range
[9]; 3 mg/kg NaPPS IM, between 2 and 4 hours after administration
  Plasma concentrations of lipoprotein lipase, hepatolipase, and superoxide dismutase: significantly elevated
[9]; 4 weekly IM injections of 3 mg/kg, for up to 12 weeks after the last injection
  patients reporting significant clinical improvement of their symptoms: 11
[10]
  blood viscosity and filterability: significant reduction
[11]; compared to leukocytes collected before
  concentrations of arachidonic acid-derived lipoxygenase (LOX) metabolites released from the cells: significantly decreased
[11]; non-stimulated leukocytes
  prostaglandin metabolites generated by the COX pathways: increased

## CCc1cccc2c3c([nH]c12)C(CC)(CC(=O)O)OCC3 (stereo not drawn) [etodolac]
[2]
  thrombotic or embolic events associated with the drug: 22 cases
